Read-outs that look alike come from different tables or passages of the source.
Experiment: Pharmacokinetic profile in rats (blood 15N-nitrite levels)
Format: in vivo, rat
Procedure: The absorption and in vivo NO-donating property of the compounds of the invention were assessed by the evaluation of blood ^15N-nitrite levels following oral administration.
Tested Compounds: • 5-(2,4,5-trimethyl-3,6-dioxocyclohexa-1,4-dienylpentyl nitrate-nitrogen-15 which corresponds to compound (1) containing nitrogen-15 (^15N-Compound (1)); • 5-(4,5-dimethoxy-2-methyl-3,6-dioxocyclohexa-1,4-dienyl)pentyl nitrate-nitrogen-15 which corresponds to compound (2) containing nitrogen-15 (^15N-Compound (2)); • 4-(2,4,5-trimethyl-3,6-dioxocyclohexa-1,4-dienyl)butyl nitrate-nitrogen-15 which corresponds to compound (3) containing nitrogen-15 (^15N-Compound (3)); • 4-(4,5-dimethoxy-2-methyl-3,6-dioxocyclohexa-1,4-dienyl)butyl nitrate-nitrogen-15 which corresponds to compound (4) containing nitrogen-15 (^15N-Compound (4)); • 10-(2,4,5-trimethyl-3,6-dioxocyclohexa-1,4-dienyl)decyl nitrate-nitrogen-15 which corresponds to compound (5) containing nitrogen-15 (^15N-Compound (5)); • 10-(4,5-dimethoxy-2-methyl-3,6-dioxocyclohexa-1,4-dienyl)decyl nitrate-nitrogen-15 which corresponds to compound (6) containing nitrogen-15 (^15N-Compound (6)); • 3-(3-(4,5-dimethoxy-2-methyl-3,6-dioxocyclohexa-1,4-dienyl)propoxy)propyl nitrate-nitrogen-15 which corresponds to compound (14) containing nitrogen-15 (^15N-Compound (14)); • 6-(2,4,5-trimethyl-3,6-dioxocyclohexa-1,4-dienyl)hexyl nitrate-nitrogen-15 which corresponds to compound (15) containing nitrogen-15 (^15N-Compound (15)); • 6-(4,5-dimethoxy-2-methyl-3,6-dioxocyclohexa-1,4-dienyl)hexyl nitrate-nitrogen-15 which corresponds to compound (16) containing nitrogen-15 (^15N-Compound (16)); • 11-(4,5-dimethoxy-2-methyl-3,6-dioxocyclohexa-1,4-dienyl)-undecane-1,2-diyl dinitrate-nitrogen-15 which corresponds to compound (17) containing nitrogen-15 (^15N-Compound (17)); • 8-(5-methoxy-2,4-dimethyl-3,6-dioxocyclohexa-1,4-dienyl)octyl nitrate-nitrogen—which corresponds to compound (19) containing nitrogen-15 (^15N-Compound (19)); • 2-(3-(4,5-dimethoxy-2-methyl-3,6-dioxocyclohexa-1,4-dienyl)propoxy)ethyl nitrate-nitrogen-15 which corresponds to compound (20) containing nitrogen-15 (^15N-Compound (20)); • 6-(3-methyl-1,4-dioxo-1,4-dihydronaphthalen-2-yl)hexyl nitrate-nitrogen-15 which corresponds to compound (23) containing nitrogen-15 (^15N-Compound (23)); • 3-(3-(3-methyl-1,4-dioxo-1,4-dihydronaphthalen-2-yl)propoxy)propyl nitrate-nitrogen-15 which corresponds to compound (25) containing nitrogen-15 (^15N-Compound (25)); • 6-(5-methoxy-2,4-dimethyl-3,6-dioxocyclohexa-1,4-dienyl)hexyl nitrate-nitrogen-15 which corresponds to compound (28) containing nitrogen-15 (^15N-Compound (28)); • 6-(4-methoxy-2,5-dimethyl-3,6-dioxocyclohexa-1,4-dienyl)hexyl nitrate-nitrogen-15 which corresponds to compound (29) containing nitrogen-15 (^15N-Compound (29)); • 8-(4-methoxy-2,5-dimethyl-3,6-dioxocyclohexa-1,4-dienyl)octyl nitrate-nitrogen-15 which corresponds to compound (32) containing nitrogen-15 (^15N-Compound (32)); • 8-(2,4,5-trimethyl-3,6-dioxocyclohexa-1,4-dienyl)octyl nitrate-nitrogen-15 which corresponds to compound (34) containing nitrogen-15 (^15N-Compound (34)); • 5-isorbide mononitrate containing nitrogen-15 (5-ISM^15N).
Cannulated SD rats were orally treated with ^15N-Compounds (6) at 30 mg/kg, 5-ISM^15N (30 mg/kg), or ^15N-Compounds (1)-(5), 14)-(17), (19), (20), (23), (25), (28), (29), (32), (34) at 30 mg/kg. At each time point (5, 10, 15, 30, 60, 180, 360 and 1440 min) blood was taken using heparin to avoid blood clotting. Blood samples were immediately protein crushed. Samples were analyzed by LC-MS/MS.
In Table 7 are reported ^15N-nitrite blood levels following oral administration of SD rats with 5-ISM^15N (30 mg/kg) or with ^15N-labeled corresponding compounds of the invention (30 mg/kg).

[1] = cannulated SD rats, blood, oral 30 mg/kg

| Compound | 15N-nitrite AUC0-24 (rat, in vivo, po, 30 mg/kg) [µM·min] | 15N-nitrite Tmax (rat, in vivo, po, 30 mg/kg) [h] | Cmax (rat, in vivo, po, 30 mg/kg) [nM] | also measured |
| --- | --- | --- | --- | --- |
| COC1=C(OC)C(=O)C(CCCOCCCO[15N+](=O)[O-])=C(C)C1=O [^15N-Compound (14), 3-(3-(4,5-dimethoxy-2-methyl-3,6-dioxocyclohexa-1,4-dienyl)propoxy)propyl nitrate-nitrogen-15] | 694 | 1 |  |  |
| CC1=C(C)C(=O)C(CCCCCCO[15N+](=O)[O-])=C(C)C1=O [^15N-Compound (15), 6-(2,4,5-trimethyl-3,6-dioxocyclohexa-1,4-dienyl)hexyl nitrate-nitrogen-15] | 2135 | 3 |  |  |
| CC1=C(C)C(=O)C(CCCCO[N+](=O)[O-])=C(C)C1=O [^15N-Compound (3), 4-(2,4,5-trimethyl-3,6-dioxocyclohexa-1,4-dienyl)butyl nitrate-nitrogen-15] |  |  | 4820 ± 1100 |  |
| COC1=C(OC)C(=O)C(CCCCCCO[N+](=O)[O-])=C(C)C1=O [^15N-Compound (16), 6-(4,5-dimethoxy-2-methyl-3,6-dioxocyclohexa-1,4-dienyl)hexyl nitrate-nitrogen-15] | 1559 | 3 | 2930 ± 490 |  |
| CC1=C(CCCOCCCO[N+](=O)[O-])C(=O)c2ccccc2C1=O [^15N-Compound (25), 3-(3-(3-methyl-1,4-dioxo-1,4-dihydronaphthalen-2-yl)propoxy)propyl nitrate-nitrogen-15] | 2010 | 3 | 2890 ± 690 |  |
| CC1=C(C)C(=O)C(CCCCCCCCCCO[15N+](=O)[O-])=C(C)C1=O [^15N-Compound (5), 10-(2,4,5-trimethyl-3,6-dioxocyclohexa-1,4-dienyl)decyl nitrate-nitrogen-15] | 1496 | 3 |  |  |
| CC1=C(CCCCCCO[N+](=O)[O-])C(=O)c2ccccc2C1=O [^15N-Compound (23), 6-(3-methyl-1,4-dioxo-1,4-dihydronaphthalen-2-yl)hexyl nitrate-nitrogen-15] |  |  | 4050 ± 530 |  |
| CC1=C(C)C(=O)C(CCCCCCCCO[15N+](=O)[O-])=C(C)C1=O [^15N-Compound (34), 8-(2,4,5-trimethyl-3,6-dioxocyclohexa-1,4-dienyl)octyl nitrate-nitrogen-15] | 1477 | 3 |  |  |
| COC1=C(OC)C(=O)C(CCCCCO[N+](=O)[O-])=C(C)C1=O [^15N-Compound (2), 5-(4,5-dimethoxy-2-methyl-3,6-dioxocyclohexa-1,4-dienyl)pentyl nitrate-nitrogen-15] |  |  | 1920 ± 250 |  |
| CC1=C(C)C(=O)C(CCCCCCCCCCO[N+](=O)[O-])=C(C)C1=O [^15N-Compound (5), 10-(2,4,5-trimethyl-3,6-dioxocyclohexa-1,4-dienyl)decyl nitrate-nitrogen-15] |  |  | 1890 ± 420 |  |
| COC1=C(OC)C(=O)C(CCCOCCO[15N+](=O)[O-])=C(C)C1=O [^15N-Compound (20), 2-(3-(4,5-dimethoxy-2-methyl-3,6-dioxocyclohexa-1,4-dienyl)propoxy)ethyl nitrate-nitrogen-15] |  |  |  | 15N-nitrite AUC0-24 [1]: 1154 µM·min; 15N-nitrite Tmax [1]: 1 h |
| COC1=C(OC)C(=O)C(CCCOCCO[N+](=O)[O-])=C(C)C1=O [^15N-Compound (20), 2-(3-(4,5-dimethoxy-2-methyl-3,6-dioxocyclohexa-1,4-dienyl)propoxy)ethyl nitrate-nitrogen-15] |  |  |  | Cmax (cannulated SD rats, blood, oral 30 mg/kg, read-out: 15N-nitrite Cmax): 3580 ± 720 nM |
| CC1=C(C)C(=O)C(CCCCCCCCO[N+](=O)[O-])=C(C)C1=O [^15N-Compound (34), 8-(2,4,5-trimethyl-3,6-dioxocyclohexa-1,4-dienyl)octyl nitrate-nitrogen-15] |  |  | 2800 ± 250 |  |
| CC1=C(CCCCCCO[15N+](=O)[O-])C(=O)c2ccccc2C1=O [^15N-Compound (23), 6-(3-methyl-1,4-dioxo-1,4-dihydronaphthalen-2-yl)hexyl nitrate-nitrogen-15] | 2586 | 3 |  |  |
| COC1=C(OC)C(=O)C(CCCCO[N+](=O)[O-])=C(C)C1=O [^15N-Compound (4), 4-(4,5-dimethoxy-2-methyl-3,6-dioxocyclohexa-1,4-dienyl)butyl nitrate-nitrogen-15] | 832 | 0.25 | 3330 ± 100 |  |
| COC1=C(OC)C(=O)C(CCCCCO[15N+](=O)[O-])=C(C)C1=O [^15N-Compound (2), 5-(4,5-dimethoxy-2-methyl-3,6-dioxocyclohexa-1,4-dienyl)pentyl nitrate-nitrogen-15] | 1139 | 1 |  |  |
| CC1=C(C)C(=O)C(CCCCO[15N+](=O)[O-])=C(C)C1=O [^15N-Compound (3), 4-(2,4,5-trimethyl-3,6-dioxocyclohexa-1,4-dienyl)butyl nitrate-nitrogen-15] | 1404 | 1 |  |  |
| COC1=C(OC)C(=O)C(CCCCCCCCCC(CO[N+](=O)[O-])O[N+](=O)[O-])=C(C)C1=O (stereo not drawn) [^15N-Compound (17), 11-(4,5-dimethoxy-2-methyl-3,6-dioxocyclohexa-1,4-dienyl)-undecane-1,2-diyl dinitrate-nitrogen-15] | 1666 | 3 | 2060 ± 120 |  |
| COC1=C(C)C(=O)C(C)=C(CCCCCCO[N+](=O)[O-])C1=O [^15N-Compound (28), 6-(5-methoxy-2,4-dimethyl-3,6-dioxocyclohexa-1,4-dienyl)hexyl nitrate-nitrogen-15] | 1199 | 1 | 3740 ± 420 |  |
| COC1=C(OC)C(=O)C(CCCOCCCO[N+](=O)[O-])=C(C)C1=O [^15N-Compound (14), 3-(3-(4,5-dimethoxy-2-methyl-3,6-dioxocyclohexa-1,4-dienyl)propoxy)propyl nitrate-nitrogen-15] |  |  | 1520 ± 110 |  |
| CC1=C(C)C(=O)C(CCCCCCO[N+](=O)[O-])=C(C)C1=O [^15N-Compound (15), 6-(2,4,5-trimethyl-3,6-dioxocyclohexa-1,4-dienyl)hexyl nitrate-nitrogen-15] |  |  | 3650 ± 580 |  |
| COC1=C(C)C(=O)C(CCCCCCCCO[N+](=O)[O-])=C(C)C1=O [^15N-Compound (32), 8-(4-methoxy-2,5-dimethyl-3,6-dioxocyclohexa-1,4-dienyl)octyl nitrate-nitrogen-15] | 1892 | 3 | 1980 ± 570 |  |
| COC1=C(C)C(=O)C(CCCCCCO[N+](=O)[O-])=C(C)C1=O [^15N-Compound (29), 6-(4-methoxy-2,5-dimethyl-3,6-dioxocyclohexa-1,4-dienyl)hexyl nitrate-nitrogen-15] | 1309 | 1 | 2550 ± 220 |  |
| CC1=C(C)C(=O)C(CCCCCO[N+](=O)[O-])=C(C)C1=O [^15N-Compound (1)] | 1248 | 1 | 3350 ± 420 |  |

Reference: patent US9079821B2, “Quinone based nitric oxide donating compounds” (NICOX S.A., priority 2011, dated 2015)
